Measured values: patent US20060069132A1, “Azolecarboxamide herbicides” (priority 2004, published 2006)
Read-outs that look alike come from different tables or passages of the source.

Columns and labels:
barnyardgrass [1] = assay: Test A pre-/postemergence herbicide test; assay type: in vivo, Echinochloa crus-galli; details: Echinochloa crus-galli, 240 h; for pest or weed control at 500 g/ha: 500 g ai/ha; for pest or weed control at 2000 g/ha: 2000 g ai/ha
In short: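 Visual injury rating on a 0–100 scale (0 no effect, 100 complete control) versus untreated controls, about ten days after treatment in greenhouse. Pre: directed soil spray onto seeded sandy loam. Post: spray to runoff on plants 2–10 cm tall at one- to two-leaf stage.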

cocklebur = assay: Test C pre-/postemergence herbicide test; assay type: in vivo, Xanthium strumarium
In short: (§1)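 Pre- and postemergence application, solvent/surfactant formulation; post at 1- to 4-leaf stage (2–18 cm). Greenhouse 12–14 d. Visual rating vs controls, 0 = no effect, 100 = complete control.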

corn = assay: Test C pre-/postemergence herbicide test; assay type: in vivo, Zea mays
In short: as §1

large crabgrass = assay: Test C pre-/postemergence herbicide test; assay type: in vivo, Digitaria sanguinalis
In short: as §1

lambsquarters = assay: Test C pre-/postemergence herbicide test; assay type: in vivo, Chenopodium album
In short: as §1

eastern black nightshade = assay: Test C pre-/postemergence herbicide test; assay type: in vivo, Solanum ptycanthum
In short: as §1

pigweed = assay: Test C pre-/postemergence herbicide test; assay type: in vivo, Amaranthus retroflexus
In short: as §1

common ragweed = assay: Test C pre-/postemergence herbicide test; assay type: in vivo, Ambrosia elatior
In short: as §1

[2] = tested on: common (oilseed) sunflower; assay: Test C pre-/postemergence herbicide test; assay type: in vivo, Helianthus annuus
In short: as §1

velvetleaf = assay: Test C pre-/postemergence herbicide test; assay type: in vivo, Abutilon theophrasti
In short: as §1

[3] = tested on: smallflower umbrella sedge; assay: Test C flooded paddy test; assay type: in vivo, Cyperus difformis; details: Cyperus difformis
ducksalad = assay: Test C flooded paddy test; assay type: in vivo, Heteranthera limosa; details: Heteranthera limosa
barnyardgrass [4] = assay: Test C flooded paddy test; assay type: in vivo, Echinochloa crus-galli; details: Echinochloa crus-galli
In short: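 Injury scored visually against controls on a 0 (no effect) to 100 (complete control) scale, 12 to 14 days after treatment in greenhouse. Flooded paddy plants treated at 2-leaf stage; postemergence plants at 1- to 4-leaf stage, 2 to 18 cm tall.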

[5] = post-emergence, Postemergence, 0 to 100 scale, 0 no effect, 100 complete control, read-out: Plant response rating, Barnyardgrass
[6] = Preemergence, 500 g ai/ha, scale 0 to 100, 0 no effect, 100 complete control

Q: Which results are given for `CCn1nc(C(C)(C)C)cc1C(=O)Nc1cccc2c1CN(C)C2=O` [Compound 55, N-(2,3-dihydro-2-methyl-1-oxo-1H-isoindol-4-yl)-3-(1,1-dimethylethyl)-1-ethyl-1H-pyrazole-5-carboxamide]?
A: pest or weed control at 500 g/ha (barnyardgrass [1]; [5]): 90%; pest or weed control at 2000 g/ha (barnyardgrass [1]; [5]): 100%; pest or weed control at 500 g/ha (barnyardgrass [1]; pre-emergence, Preemergence, visual rating, 0 to 100 scale (0 no effect, 100 complete control), read-out: Barnyardgrass plant response rating): 80%; pest or weed control at 2000 g/ha (barnyardgrass [1]; pre-emergence, Preemergence, 0 to 100 scale, 0 no effect, 100 complete control, read-out: Barnyardgrass plant response rating): 95%; Plant response rating (0 = no effect, 100 = complete control), Cocklebur (cocklebur; 62 g ai/ha, preemergence): 0; pest or weed control at 125 g/ha (cocklebur; Xanthium strumarium, pre-emergence, 312 h, 125 g ai/ha, scale 0 (no effect) to 100 (complete control), visual, 12 to 14 days, read-out: Plant response rating, Cocklebur): 0%; pest or weed control at 250 g/ha (cocklebur; Xanthium strumarium, pre-emergence, 312 h, 250 g ai/ha, scale 0 to 100 (0 no effect, 100 complete control), visual, 12 to 14 days, read-out: Plant response rating, Cocklebur): 0%; pest or weed control at 500 g/ha (cocklebur; Xanthium strumarium, pre-emergence, 312 h, Preemergence, 500 g ai/ha, scale 0 to 100, 0 no effect, 100 complete control, read-out: Cocklebur plant response rating): 0%; Plant response rating (0 = no effect, 100 = complete control), Corn (corn; 62 g ai/ha, preemergence): 0; Corn plant response rating (corn; [6]): 0; Corn plant response rating (crop injury, 0 = no effect, 100 = complete kill) at 125 g/ha (corn; Zea mays, pre-emergence, 312 h, 125 g ai/ha, scale 0 (no effect) to 100 (complete control), visual, 12 to 14 days): 0%; Corn plant response rating (crop injury, 0 = no effect, 100 = complete kill) at 250 g/ha (corn; Zea mays, pre-emergence, 312 h, 250 g ai/ha, scale 0 to 100 (0 no effect, 100 complete control), visual, 12 to 14 days): 0%; Plant response rating (0 = no effect, 100 = complete control), Crabgrass, Large (large crabgrass; 62 g ai/ha, preemergence): 15; pest or weed control at 125 g/ha (large crabgrass; Digitaria sanguinalis, pre-emergence, 312 h, 125 g ai/ha, scale 0 (no effect) to 100 (complete control), visual, 12 to 14 days, read-out: Plant response rating, Crabgrass, Large): 90%; pest or weed control at 250 g/ha (large crabgrass; Digitaria sanguinalis, pre-emergence, 312 h, 250 g ai/ha, scale 0 to 100 (0 no effect, 100 complete control), visual, 12 to 14 days, read-out: Plant response rating, Crabgrass, Large): 95%; Crabgrass, Large plant response rating (large crabgrass; [6]): 100; Plant response rating (0 = no effect, 100 = complete control), Lambsquarters (lambsquarters; 62 g ai/ha, preemergence): 80; pest or weed control at 125 g/ha (lambsquarters; Chenopodium album, pre-emergence, 125 g ai/ha, scale 0 (no effect) to 100 (complete control), visual, 12 to 14 days, read-out: Plant response rating, Lambsquarters): 95%; pest or weed control at 250 g/ha (lambsquarters; Chenopodium album, pre-emergence, 250 g ai/ha, scale 0 to 100 (0 no effect, 100 complete control), visual, 12 to 14 days, read-out: Plant response rating, Lambsquarters): 100%; Lambsquarters plant response rating (lambsquarters; [6]): 100; Plant response rating (0 = no effect, 100 = complete control), Nightshade (eastern black nightshade; 62 g ai/ha, preemergence): 15; Nightshade plant response rating (eastern black nightshade; [6]): 95; pest or weed control at 125 g/ha (eastern black nightshade; pre-emergence, 125 g ai/ha, scale 0 (no effect) to 100 (complete control), visual, 12 to 14 days, read-out: Plant response rating, Nightshade): 60%; pest or weed control at 250 g/ha (eastern black nightshade; pre-emergence, 250 g ai/ha, scale 0 to 100 (0 no effect, 100 complete control), visual, 12 to 14 days, read-out: Plant response rating, Nightshade): 90%; Plant response rating (0 = no effect, 100 = complete control), Pigweed (pigweed; 62 g ai/ha, preemergence): 95; pest or weed control at 125 g/ha (pigweed; Amaranthus retroflexus, pre-emergence, 125 g ai/ha, scale 0 (no effect) to 100 (complete control), visual, 12 to 14 days, read-out: Plant response rating, Pigweed): 95%; pest or weed control at 250 g/ha (pigweed; Amaranthus retroflexus, pre-emergence, 250 g ai/ha, scale 0 to 100 (0 no effect, 100 complete control), visual, 12 to 14 days, read-out: Plant response rating, Pigweed): 95%; Pigweed plant response rating (pigweed; [6]): 95; Plant response rating (0 = no effect, 100 = complete control), Ragweed (common ragweed; 62 g ai/ha, preemergence): 0; pest or weed control at 125 g/ha (common ragweed; Ambrosia artemisiifolia, pre-emergence, 125 g ai/ha, scale 0 (no effect) to 100 (complete control), visual, 12 to 14 days, read-out: Plant response rating, Ragweed): 0%; pest or weed control at 250 g/ha (common ragweed; Ambrosia artemisiifolia, pre-emergence, 250 g ai/ha, scale 0 to 100 (0 no effect, 100 complete control), visual, 12 to 14 days, read-out: Plant response rating, Ragweed): 0%; Ragweed plant response rating (common ragweed; [6]): 80; Plant response rating (0 = no effect, 100 = complete control), Sunflower ([2]; 62 g ai/ha, preemergence): 0; pest or weed control at 125 g/ha ([2]; Helianthus annuus, pre-emergence, 125 g ai/ha, scale 0 (no effect) to 100 (complete control), visual, 12 to 14 days, read-out: Plant response rating, Sunflower): 0%; pest or weed control at 250 g/ha ([2]; Helianthus annuus, pre-emergence, 250 g ai/ha, scale 0 to 100 (0 no effect, 100 complete control), visual, 12 to 14 days, read-out: Plant response rating, Sunflower): 0%; Sunflower plant response rating [2, 6]: 0; Plant response rating (0 = no effect, 100 = complete control), Velvetleaf (velvetleaf; 62 g ai/ha, preemergence): 0; pest or weed control at 125 g/ha (velvetleaf; Abutilon theophrasti, pre-emergence, 125 g ai/ha, scale 0 (no effect) to 100 (complete control), visual, 12 to 14 days, read-out: Plant response rating, Velvetleaf): 0%; pest or weed control at 250 g/ha (velvetleaf; Abutilon theophrasti, pre-emergence, 250 g ai/ha, scale 0 to 100 (0 no effect, 100 complete control), visual, 12 to 14 days, read-out: Plant response rating, Velvetleaf): 15%; Velvetleaf plant response rating (velvetleaf; [6]): 100; pest or weed control at 62 g/ha ([3]; 62 g ai/ha, scale 0 to 100 (0 no effect, 100 complete control), read-out: Sedge, Umbrella plant response rating): 0%; pest or weed control at 125 g/ha ([3]; 125 g ai/ha, scale of 0 to 100, 0 is no effect, 100 is complete control, read-out: Sedge, Umbrella plant response rating): 20%; pest or weed control at 250 g/ha ([3]; 250 g ai/ha, scale of 0 to 100, 0 is no effect, 100 is complete control, read-out: Sedge, Umbrella plant response rating): 75%; pest or weed control at 500 g/ha ([3]; 500 g ai/ha, visual rating after 12 to 14 days, scale 0 to 100 (0 no effect, 100 complete control), read-out: Plant response rating, Sedge, Umbrella): 80%; pest or weed control at 62 g/ha (ducksalad; 62 g ai/ha, scale 0 to 100 (0 no effect, 100 complete control), read-out: Ducksalad plant response rating): 0%; pest or weed control at 125 g/ha (ducksalad; 125 g ai/ha, scale of 0 to 100, 0 is no effect, 100 is complete control, read-out: Ducksalad plant response rating): 0%; pest or weed control at 250 g/ha (ducksalad; 250 g ai/ha, scale of 0 to 100, 0 is no effect, 100 is complete control, read-out: Ducksalad plant response rating): 55%; pest or weed control at 500 g/ha (ducksalad; 500 g ai/ha, visual rating after 12 to 14 days, scale 0 to 100 (0 no effect, 100 complete control), read-out: Plant response rating, Ducksalad): 80%; pest or weed control at 62 g/ha (barnyardgrass [4]; 62 g ai/ha, scale 0 to 100 (0 no effect, 100 complete control), read-out: Barnyardgrass plant response rating): 0%; pest or weed control at 125 g/ha (barnyardgrass [4]; 125 g ai/ha, scale of 0 to 100, 0 is no effect, 100 is complete control, read-out: Barnyardgrass plant response rating): 0%; pest or weed control at 250 g/ha (barnyardgrass [4]; 250 g ai/ha, scale of 0 to 100, 0 is no effect, 100 is complete control, read-out: Barnyardgrass plant response rating): 25%; pest or weed control at 500 g/ha (barnyardgrass [4]; 500 g ai/ha, visual rating after 12 to 14 days, scale 0 to 100 (0 no effect, 100 complete control), read-out: Plant response rating, Barnyardgrass): 75%
